Test results reported in ChEMBL document CHEMBL1135277, “Beta-carbolines as specific inhibitors of cyclin-dependent kinases” (Bioorg Med Chem Lett, 2002).

Assays:
[1] = molecular target: Cyclin-dependent kinase 2 (Homo sapiens) (UniProt P24941); assay: Percentage inhibition against cyclin dependent kinase 2 (CDK 2) at a concentration of 50 uM
[2] = molecular target: Cyclin-dependent kinase 2/cyclin A (Homo sapiens, UniProt P24941); assay: Inhibition of Cyclin-dependent kinase 2-cyclin A; assay type: protein-complex assay
[3] = molecular target: Tyrosine-protein kinase Fyn (Homo sapiens, UniProt P06241); assay: Inhibition of Fyn kinase
Chain of Tyrosine-protein kinase Fyn (P06241 whole entry): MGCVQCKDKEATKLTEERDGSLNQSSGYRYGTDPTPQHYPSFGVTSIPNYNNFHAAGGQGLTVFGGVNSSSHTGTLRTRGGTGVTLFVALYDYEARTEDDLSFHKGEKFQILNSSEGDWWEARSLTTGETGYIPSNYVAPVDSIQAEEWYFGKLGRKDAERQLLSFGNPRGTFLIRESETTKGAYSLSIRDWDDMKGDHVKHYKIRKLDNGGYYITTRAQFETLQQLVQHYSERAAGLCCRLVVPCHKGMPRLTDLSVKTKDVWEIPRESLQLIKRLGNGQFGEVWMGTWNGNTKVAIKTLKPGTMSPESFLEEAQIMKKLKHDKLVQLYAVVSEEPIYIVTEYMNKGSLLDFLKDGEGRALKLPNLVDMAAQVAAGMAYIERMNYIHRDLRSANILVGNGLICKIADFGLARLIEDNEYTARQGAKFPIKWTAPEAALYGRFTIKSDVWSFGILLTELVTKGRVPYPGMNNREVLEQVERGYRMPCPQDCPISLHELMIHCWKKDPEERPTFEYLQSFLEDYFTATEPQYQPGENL

[4] = molecular target: Cyclin-dependent kinase 1/cyclin B (Homo sapiens, UniProt P06493); assay: Inhibition of Cell division cycle 2 (CDK1)-cyclin B; assay type: protein-complex assay
[5] = molecular target: Tyrosine-protein kinase Lyn (Homo sapiens, UniProt P07948); assay: Inhibition of Lyn tyrosine kinase
Chain of Tyrosine-protein kinase Lyn (P07948 whole entry): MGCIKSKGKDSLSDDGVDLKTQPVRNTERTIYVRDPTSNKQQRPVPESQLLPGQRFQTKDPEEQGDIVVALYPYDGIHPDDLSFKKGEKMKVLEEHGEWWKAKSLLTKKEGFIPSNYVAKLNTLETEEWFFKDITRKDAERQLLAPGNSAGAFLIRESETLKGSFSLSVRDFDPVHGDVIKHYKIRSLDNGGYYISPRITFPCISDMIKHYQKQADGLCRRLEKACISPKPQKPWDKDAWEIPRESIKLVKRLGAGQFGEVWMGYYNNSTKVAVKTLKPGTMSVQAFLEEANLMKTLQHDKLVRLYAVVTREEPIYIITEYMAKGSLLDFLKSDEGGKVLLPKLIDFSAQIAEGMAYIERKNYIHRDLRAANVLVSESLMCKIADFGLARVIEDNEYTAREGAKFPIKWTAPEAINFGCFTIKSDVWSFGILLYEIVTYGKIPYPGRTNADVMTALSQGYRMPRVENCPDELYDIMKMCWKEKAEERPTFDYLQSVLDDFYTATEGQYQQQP

Protein kinase C (PKC) = assay: Inhibition of protein kinase C; assay type: protein assay
[6] = Inhibition of Mitogen-activated protein kinase
[7] = molecular target: Cyclin-dependent kinase 5/CDK5 activator 1 (Homo sapiens, UniProt Q00535); assay: Inhibition of Cyclin-dependent kinase 5-p35nck5a; assay type: protein-complex assay
Chain of Cyclin-dependent kinase 5/CDK5 activator 1 (Q00535 whole entry): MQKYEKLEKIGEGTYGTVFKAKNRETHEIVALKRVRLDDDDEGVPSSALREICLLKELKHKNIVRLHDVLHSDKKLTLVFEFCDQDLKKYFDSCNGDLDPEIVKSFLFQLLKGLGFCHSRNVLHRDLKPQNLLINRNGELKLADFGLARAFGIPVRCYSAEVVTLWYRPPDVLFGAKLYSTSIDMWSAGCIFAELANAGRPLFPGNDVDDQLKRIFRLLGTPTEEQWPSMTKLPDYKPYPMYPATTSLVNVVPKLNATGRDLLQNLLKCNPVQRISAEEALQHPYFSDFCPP
Chain of Cyclin-dependent kinase 5/CDK5 activator 1 (Q15078 whole entry, further chain): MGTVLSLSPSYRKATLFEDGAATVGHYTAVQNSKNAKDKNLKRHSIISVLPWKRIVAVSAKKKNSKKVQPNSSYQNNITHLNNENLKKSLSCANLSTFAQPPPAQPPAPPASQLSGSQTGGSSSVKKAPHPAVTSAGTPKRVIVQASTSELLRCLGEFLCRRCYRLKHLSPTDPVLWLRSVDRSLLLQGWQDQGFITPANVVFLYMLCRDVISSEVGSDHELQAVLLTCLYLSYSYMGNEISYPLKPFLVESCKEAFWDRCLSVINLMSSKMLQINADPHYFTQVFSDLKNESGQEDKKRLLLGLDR

[8] = molecular target: Tyrosine-protein kinase Lck (Homo sapiens, UniProt P06239); assay: Inhibition of p56 Lck tyrosine kinase
Chain of Tyrosine-protein kinase Lck (P06239 whole entry): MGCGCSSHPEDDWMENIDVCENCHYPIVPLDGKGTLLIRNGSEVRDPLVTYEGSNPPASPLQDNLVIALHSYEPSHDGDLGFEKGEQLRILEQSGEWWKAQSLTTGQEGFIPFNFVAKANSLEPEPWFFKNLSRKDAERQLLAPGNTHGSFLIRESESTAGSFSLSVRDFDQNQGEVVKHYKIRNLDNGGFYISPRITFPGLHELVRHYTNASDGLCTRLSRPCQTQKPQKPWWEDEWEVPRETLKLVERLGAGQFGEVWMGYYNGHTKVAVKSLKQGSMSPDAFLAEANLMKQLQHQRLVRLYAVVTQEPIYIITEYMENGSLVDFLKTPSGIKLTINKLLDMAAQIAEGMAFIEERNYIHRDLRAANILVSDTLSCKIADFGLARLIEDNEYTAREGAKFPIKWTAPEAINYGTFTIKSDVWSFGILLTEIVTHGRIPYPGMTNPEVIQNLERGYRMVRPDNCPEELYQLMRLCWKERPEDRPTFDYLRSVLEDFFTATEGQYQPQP

| SMILES | inhibition [1] [%] | further results |
| --- | --- | --- |
| O=[N+]([O-])c1ccc(-c2[nH]ccc3c4ccccc4nc2-3)cc1Cl | 4 |  |
| CCOC(COc1ccc2c(c1)[nH]c1c(C)nccc12)OCC | 1 |  |
| Cc1nccc2c1[nH]c1cc(OCCO)ccc12 | 4 |  |
| CCc1nccc2c1[nH]c1cc(F)ccc12 | 54 |  |
| CCCNC(=O)Oc1ccc2c(c1)[nH]c1c(C)nccc12 | 61 |  |
| CC(C)c1nccc2c1[nH]c1ccccc12 | 44 |  |
| Fc1ccc(-c2[nH]ccc3c4ccccc4nc2-3)c(F)c1 | 56 |  |
| COc1cccc(-c2[nH]ccc3c4ccccc4nc2-3)c1 | 5 |  |
| Cc1[nH]cnc1-c1nccc2c1[nH]c1ccccc12 | 89 | IC50 [2]: 6 µM; IC50 [3]: > 250 µM; IC50 [4]: 25 µM; IC50 [5]: > 250 µM; IC50 (Protein kinase C (PKC)): > 250 µM; IC50 [6]: > 250 µM |
| CCCc1ncc(N)c2c1[nH]c1ccccc12 | 22 |  |
| Fc1ccc(-c2nccc3c2[nH]c2ccccc23)cc1 | 20 |  |
| Fc1ccc2c(c1)[nH]c1c(-c3ccccc3)nccc12 | 57 |  |
| c1ccc(-c2nccc3c2[nH]c2ccccc23)cc1 | 13 |  |
| CC(C)(C)c1[nH]ccc2c3ccccc3nc1-2 | 50 |  |
| COC(=O)Cc1nccc2c1[nH]c1ccccc12 | 11 |  |
| COc1ccc2c3c([nH]c2c1)C(C)=NCC3 | 10 |  |
| Clc1ccc(-c2nccc3c2[nH]c2ccccc23)cc1 | 48 |  |
| COc1ccc(-c2nccc3c2[nH]c2ccccc23)cc1 | 6 |  |
| c1ccc2c(c1)[nH]c1cnccc12 | 37 |  |
| CCCc1nccc2c1[nH]c1cc(F)ccc12 | 60 |  |
| N#Cc1ccccc1-c1[nH]ccc2c3ccccc3nc1-2 | 8 |  |

| SMILES | inhibition [1] [%] | further results |
| --- | --- | --- |
| Cc1nccc2c1[nH]c1cccc(F)c12 | 55 |  |
| CC(=O)OCCOc1ccc2c(c1)[nH]c1c(C)nccc12 | 23 |  |
| FC(F)(F)c1[nH]ccc2c3ccccc3nc1-2 | 39 |  |
| Fc1ccccc1-c1[nH]ccc2c3ccccc3nc1-2 | 64 |  |
| O=[N+]([O-])c1ccc(-c2[nH]ccc3c4ccccc4nc2-3)cc1 | 31 |  |
| CCCCOc1ccc2c(c1)[nH]c1c(C)nccc12 | 50 |  |
| Cc1nccc2c1[nH]c1cc(OCCOC(=O)c3ccccc3)ccc12 | 13 |  |
| Clc1ccccc1-c1[nH]ccc2c3ccccc3nc1-2 | 69 |  |
| N#Cc1cccc(-c2nccc3c2[nH]c2ccccc23)c1 | 31 |  |
| Cc1nccc2c1[nH]c1cc(OC(=O)NC3CCCCC3)ccc12 | 53 |  |
| Cc1nccc2c1[nH]c1ccccc12 | 47 |  |
| Cc1nccc2c1[nH]c1cc(OCCN3C(=O)c4ccccc4C3=O)ccc12 | 8 |  |
| Cc1ccc2[nH]c3c(C)nccc3c2c1 | 15 |  |
| Cc1ccc2c(c1)[nH]c1c(C)nccc12 | 23 |  |
| Cc1nccc2c1[nH]c1ccc(F)cc12 | 46 |  |
| Cc1nccc2c1[nH]c1cc(OCC(N)=O)ccc12 | 15 |  |
| Cc1nccc2c1[nH]c1cc(Oc3ncc(C(F)(F)F)cc3Cl)ccc12 | 10 |  |
| Fc1cccc(-c2nccc3c2[nH]c2ccccc23)c1 | 6 |  |
| Cc1nccc2c1[nH]c1cc(OCCC3(C)OCC(C)(C)CO3)ccc12 | 27 |  |
| COc1ccc2[nH]c3c(C(=O)O)nccc3c2c1 | 12 |  |
| Cc1nccc2c1[nH]c1cccc(C)c12 | 30 |  |

| SMILES | inhibition [1] [%] | further results |
| --- | --- | --- |
| c1ccc2c(c1)[nH]c1c(-c3c[nH]cn3)nccc12 | 30 |  |
| CCCc1nccc2c1[nH]c1ccccc12 | 43 |  |
| N#Cc1ccc(-c2nccc3c2[nH]c2ccccc23)cc1 | 29 |  |
| CC1=NCCc2c1[nH]c1cc(O)ccc21 | 13 |  |
| COc1ccc2[nH]c3c(C)nccc3c2c1 | 2 |  |
| O=[N+]([O-])c1ccccc1-c1[nH]ccc2c3ccccc3nc1-2 | 43 |  |
| Cc1nccc2c1[nH]c1cc(OCC(=O)OCc3ccccc3)ccc12 | 57 |  |
| Cc1nccc2c1[nH]c1ccc(OC(=O)c3ccccc3)cc12 | 2 |  |
| O=[N+]([O-])c1ccc(Cl)c(-c2[nH]ccc3c4ccccc4nc2-3)c1 | 70 | IC50 [2]: 22 µM; IC50 [7]: > 1200 µM; IC50 [3]: > 250 µM; IC50 [4]: 45 µM; IC50 [5]: > 250 µM; IC50 (Protein kinase C (PKC)): > 250 µM |
| Cc1[nH]ccc2c1[nH]c1cc(=O)ccc12 | 69 |  |
| Cc1ccc2c(c1)[nH]c1c(-c3ccccc3F)nccc12 | 36 |  |
| Cc1ccc(-c2[nH]ccc3c4ccccc4nc2-3)c(C)c1 | 5 |  |
| Fc1ccc2c(c1)[nH]c1c(-c3ccccc3F)nccc12 | 55 |  |
| Cc1[nH]cnc1-c1[nH]ccc2c3ccc(F)cc3nc1-2 | 51 |  |
| Cc1nccc2c1[nH]c1cc(F)ccc12 | 65 | IC50 [8]: > 250 µM; IC50 [2]: 30 µM; IC50 [3]: > 250 µM; IC50 [4]: 42 µM; IC50 [5]: > 250 µM; IC50 (Protein kinase C (PKC)): > 250 µM; IC50 [6]: > 250 µM |
| Clc1cccc(-c2nccc3c2[nH]c2ccccc23)c1 | 32 |  |
| O=[N+]([O-])c1cccc(-c2[nH]ccc3c4ccccc4nc2-3)c1 | 19 |  |
| COc1ccc2c(c1)[nH]c1c(C)nccc12 [HARMINE] | 62 | IC50 [8]: > 250 µM; IC50 [2]: 35 µM; IC50 [3]: > 250 µM; IC50 [5]: > 250 µM; IC50 (Protein kinase C (PKC)): > 250 µM; IC50 [6]: > 250 µM |
| CCOc1ccc2c(c1)[nH]c1c(C)nccc12 | 43 |  |
| Brc1ccccc1-c1[nH]ccc2c3ccccc3nc1-2 | 10 |  |
